In assay [1] the test system is H1650 lung cancer cells. The arrangement: % @ 20 μM: scale not given here. The settings on record: cited from earlier work; for IC50: examples up to number 80 taken from PCT WO2013/025882, read-out: IC50 (μM), Cell Viability Data.
The test system of a further assay is EGFR-L858R/CCSP mice. The assay is described as follows: In vivo lung cancer model (MRI tumor volume). The settings on record: 100 mg/kg i.p. every other day for two weeks; DMSO control 20% increase. The method, then:
The in vivo lung cancer model is described in Politi et al., Genes Dev. Jun. 1, 2006 20: 1496-1510. EGFR-L858R/CCSP mice were fed doxycycline-impregnanted food pellets to induce tumor formation. After 8-12 weeks, mice were imaged in a Bruker 4.7T Biospec scanner to confirm lung nodule development. After tumor confirmation, the compound of Example 30 was prepared in DMSO (Sigma) and administered i.p. at 100 mg/kg every other day for two weeks. After treatment, the mice were re-imaged by MRI, and pre-treatment and post-treatment lung volumes were calculated by visible lung opacity present in each axial image using Osirix 4.1.1. DMSO control animals show a 20% increase in tumor volume over two week treatment period. Animals treated with the compound of Example 30 show a 60% decrease in tumor volume over two week treatment period.

Assay [2] deals with BALB/c hearts transplanted into fully allogeneic B6 recipients. The assay is described as follows: Heart allograft survival. The class given is in vivo, mice. The settings on record: 100 mg/kg i.p.; n=4; untreated rejected by day 8; p<0.05 vs control. The method, then: To test for a clinically relevant in vivo effect, BALB/c hearts were transplanted into fully allogeneic B6 recipients. While untreated animals rejected their grafts by day 8 n=4, the grafts in the mice treated with 100 mg/kg i.p. of Example 30 lasted 18 days n=4, p<0.05 vs control, a statistically and clinically significant effect.

Assay [3] relates to H1650 lung cancer cells. Nature of the assay: Cell viability assay (MTT, IC50 determination). The class given is cell-based. The settings on record: Homo sapiens, NCI-H1650, 48 h after drug treatment, examples 100-103. The method, then: Cell Viability Assays (IC50 Determination)
Cell viability assays were performed according to Denizot, F. and R. Lang, Journal of Immunological Methods, 1986. 89(22): p. 271-277. H1650 lung cancer cells were plated at 150,000 cells per well in a 12 well plate. Twenty-four hours after plating, cells were treated as described with increasing concentrations of drug and control. Forty-eight hours after drug treatment, cells were treated with 100 μL of 3-(4,5-Dimethylthiazol-2-yl)-2,5-diphenyltetrazolium bromide (MTT) and incubated for 2 hours at 37 C. The MTT solution was subsequently replaced with 300 μl of n-propyl alcohol and re-aliquoted to a 96 well plates. Spectrophotometric analysis of each solution was performed using a 96 well plate reader at 600 nm in triplicate. The examples up to number 80 in Table 1 below are taken from PCT WO2013/025882, published 21 Feb. 2013. They illustrate biological activities of compounds that share a tricyclic scaffold.

In the next assay the test system is CD4 naïve cells. The assay is described as follows: Induction of Treg (Foxp3+) from naïve CD4 T cells. The class given is cell-based. The settings on record: control compounds, concentration not given; 3 days. The procedure: Example 30 has been tested for its ability to induce Treg from naïve CD4 T cells. […] Fifty thousand CD4 naïve cells (CD62Lhi,CD25 low, CD4 positive) were incubated with 2 ng/mL TGFβ, 1 ug/mL anti-CD3, 100 ng/mL IL-2, 50000 APCs per well and the compounds 10 μM, 5 μM and 2.5 μM concentrations. The cells were incubated for 3 days and then stained for CD4 and Foxp3 expression. Results were expressed as fold increase over the % induced in control (DMSO) wells (typically 20-25% Foxp3+). AKTi, a small molecule AKT inhibitor, was used as a positive control; it induced about a 4-fold increase. […] The effects of Example 30 on iTreg induction are amplified as the TGFβ concentration decreases.

The values below come from patent US9796717B2, “Tricyclic heterocycles as anticancer agents” (ICAHN SCHOOL OF MEDICINE AT MOUNT SINAI, priority 2013, dated 2017).

Read-outs that look alike come from different tables or passages of the source.

Turning to `O=S(=O)(N[C@H]1CCC[C@@H](N2c3ccccc3CCc3ccccc32)C1)c1ccc(OC(F)(F)F)cc1` (relative stereo) [Example 73 cis, cis-N-(3-(10,11-dihydro-5H-dibenzo[b,f]azepin-5-yl)cyclohexyl)-4-(trifluoromethoxy)benzenesulfonamide], the concentration for half-maximal inhibition (IC50) in the assay with H1650 lung cancer cells [1] (MTT, 48 h after drug treatment) was 5 µM. As to `O=S(=O)(N[C@H]1CCC[C@H](N2c3ccccc3CCc3ccccc32)C1)c1ccc(OC(F)(F)F)cc1` (relative stereo) [Example 73 trans, trans-N-(3-(10,11-dihydro-5H-dibenzo[b,f]azepin-5-yl)cyclohexyl)-4-(trifluoromethoxy)benzenesulfonamide], the IC50 in the assay with H1650 lung cancer cells [1] (MTT, 48 h after drug treatment) was 15 µM. Regarding `O=S(=O)(NCCCN1c2ccccc2CCc2ccc(Cl)cc21)c1cc(F)cc(F)c1` [Example 13, N-(3-(3-chloro-10,11-dihydro-5H-dibenzo[b,f]azepin-5-yl)propyl)-3,5-difluorobenzenesulfonamide], the IC50 in the assay with H1650 lung cancer cells [1] (MTT, 48 h after drug treatment) was 18 µM. For `Cc1ccc(S(=O)(=O)NCCN2c3ccccc3Sc3ccc(Cl)cc32)cc1` [Example 18, N-(2-(2-chloro-10H-phenothiazin-10-yl)pethyl)4-methylbenzenesulfonamide], the IC50 in the assay with H1650 lung cancer cells [1] (MTT, 48 h after drug treatment) was 24.4 µM. For `O=S(=O)(NCCCN1c2ccccc2CCc2ccc(Cl)cc21)c1ccc(Cl)cc1F` [Example 28, N-(3-(3-chloro-10,11-dihydro-5H-dibenzo[b,f]azepin-5-yl)propyl)-4-chloro-2-fluorobenzenesulfonamide], the “IC50 (μM), Cell Viability Data” value in the assay on H1650 lung cancer cells [1] (MTT, 48 h after drug treatment, examples up to number 80 taken from PCT WO2013/025882) is “INACTIVE”.

As to `O=S(=O)(NCCCN1c2ccccc2CCc2ccc(Cl)cc21)c1ccc(OC(F)(F)F)cc1` [Example 30, N-(3-(3-chloro-10,11-dihydro-5H-dibenzo[b,f]azepin-5-yl)propyl)-4-(trifluoromethoxy)benzenesulfonamide], the “decrease in tumor volume over two week treatment period” value in the assay on EGFR-L858R/CCSP mice is 60%. Besides, the graft survival in assay [2] came to 18 days. On to `O=S(=O)(NCCC=C1c2ccccc2Sc2ccccc21)c1ccc(OC(F)(F)F)cc1` [Example 50, N-(3-(9H-thioxanthen-9-ylidene)propyl)-4-(trifluoromethoxy)benzenesulfonamide], for which the IC50 in the assay with H1650 lung cancer cells [1] (MTT, 48 h after drug treatment) was around 15 µM.

`O=S(=O)(NCCCN1c2ccccc2CCc2ccc(Cl)cc21)c1cnc(Cl)c(Br)c1` [Example 63, 5-Bromo-6-chloro-N-(3-(3-chloro-10,11-dihydro-5H-dibenzo[b,f]azepin-5-yl)propyl)pyridine-3-sulfonamide]: the “% @ 20 μM” value in the assay on H1650 lung cancer cells [1] (20 μM, taken from PCT WO2013/025882) is 65% @ 20. Consider `O=S(=O)(NCCCN1c2ccccc2CCc2cccnc21)c1ccc(OC(F)(F)F)cc1` [Example 100, N-(3-(5H-Benzo[b]pyrido[3,2-f]azepin-11(6H)-yl)propyl)-4-(trifluoromethoxy)benzenesulfonamide], for which 20 µM corresponded to half-maximal inhibition in the assay with H1650 lung cancer cells [3] (IC50). Same read-out and setting: the value for `O=S(=O)(NCCCN1c2ccccc2CCc2cccnc21)c1ccc(Cl)cc1` [Example 101, N-(3-(5H-Benzo[b]pyrido[3,2-f]azepin-11(6H)-yl)propyl)-4-chlorobenzenesulfonamide] was 25 µM; that for `O=S(=O)(NCCCN1c2ccccc2CCc2ncccc21)c1ccc(OC(F)(F)F)cc1` [Example 102, N-(3-(10,11-Dihydro-5H-benzo[b]pyrido[2,3-f]azepin-5-yl)propyl)-4-(trifluoromethoxy)benzenesulfonamide] was 30 µM.

Turning to `O=S(=O)(NCCCN1c2ccccc2CCc2ncccc21)c1ccc(Cl)cc1` [Example 103, 4-Chloro-N-(3-(10,11-dihydro-5H-benzo[b]pyrido[2,3-f]azepin-5-yl)propyl)benzenesulfonamide], in the assay with H1650 lung cancer cells [3], the IC50 was 30 µM. With `O=C(CCCN1CCC(O)(c2ccc(Cl)cc2)CC1)c1ccc(F)cc1` [Haloperidol], the “fold increase in iTreg over control (DMSO) wells” value in the assay with CD4 naïve cells is on record as “did not induce a statistically significant increase”.

A word on the IC50: it is the concentration that gives 50% inhibition.
